Data as given in ChEMBL document CHEMBL2086238, “Identification of ETP-46321, a potent and orally bioavailable PI3K α, δ inhibitor” (Bioorg Med Chem Lett, 2012).

Tests used:
[1] = target: Tyrosine-protein kinase JAK2 (Homo sapiens) (UniProt O60674); assay: Inhibition of JAK2 at 1 uM
[2] = target: Receptor-type tyrosine-protein kinase FLT3 (Homo sapiens) (UniProt P36888); assay: Inhibition of FLT3 at 1 uM
[3] = target: Ribosomal protein S6 kinase alpha-1 (Homo sapiens) (UniProt Q15418); assay: Inhibition of RPS6KA1 at 1 uM
[4] = target: Hepatocyte growth factor receptor (Homo sapiens) (UniProt P08581); assay: Inhibition of MET at 1 uM
[5] = Inhibition of PDGFR at 5 uM
[6] = target: Serine/threonine-protein kinase PAK 1 (Homo sapiens) (UniProt Q13153); assay: Inhibition of PAK1 at 1 uM
Serine/threonine-protein kinase PAK 1 (Homo sapiens), sequence (Q13153 whole entry): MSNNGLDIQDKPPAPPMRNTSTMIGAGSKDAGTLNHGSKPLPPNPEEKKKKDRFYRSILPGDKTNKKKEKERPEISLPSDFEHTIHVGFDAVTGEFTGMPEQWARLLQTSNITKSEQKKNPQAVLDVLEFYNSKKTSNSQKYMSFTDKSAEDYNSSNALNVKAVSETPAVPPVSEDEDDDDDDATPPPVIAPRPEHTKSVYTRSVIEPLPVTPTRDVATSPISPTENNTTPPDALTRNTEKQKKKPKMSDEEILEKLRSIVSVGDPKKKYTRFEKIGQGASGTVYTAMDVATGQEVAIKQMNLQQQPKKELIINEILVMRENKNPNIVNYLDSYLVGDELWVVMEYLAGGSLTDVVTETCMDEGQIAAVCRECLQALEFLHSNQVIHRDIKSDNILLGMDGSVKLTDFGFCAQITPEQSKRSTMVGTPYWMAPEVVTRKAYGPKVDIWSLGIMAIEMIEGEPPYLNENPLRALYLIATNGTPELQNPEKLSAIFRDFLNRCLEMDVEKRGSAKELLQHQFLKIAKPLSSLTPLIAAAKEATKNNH

[7] = target: Insulin-like growth factor 1 receptor (Homo sapiens) (UniProt P08069); assay: Inhibition of IGF1R at 5 uM
Insulin-like growth factor 1 receptor (Homo sapiens), sequence (P08069 31-736 limits assumed): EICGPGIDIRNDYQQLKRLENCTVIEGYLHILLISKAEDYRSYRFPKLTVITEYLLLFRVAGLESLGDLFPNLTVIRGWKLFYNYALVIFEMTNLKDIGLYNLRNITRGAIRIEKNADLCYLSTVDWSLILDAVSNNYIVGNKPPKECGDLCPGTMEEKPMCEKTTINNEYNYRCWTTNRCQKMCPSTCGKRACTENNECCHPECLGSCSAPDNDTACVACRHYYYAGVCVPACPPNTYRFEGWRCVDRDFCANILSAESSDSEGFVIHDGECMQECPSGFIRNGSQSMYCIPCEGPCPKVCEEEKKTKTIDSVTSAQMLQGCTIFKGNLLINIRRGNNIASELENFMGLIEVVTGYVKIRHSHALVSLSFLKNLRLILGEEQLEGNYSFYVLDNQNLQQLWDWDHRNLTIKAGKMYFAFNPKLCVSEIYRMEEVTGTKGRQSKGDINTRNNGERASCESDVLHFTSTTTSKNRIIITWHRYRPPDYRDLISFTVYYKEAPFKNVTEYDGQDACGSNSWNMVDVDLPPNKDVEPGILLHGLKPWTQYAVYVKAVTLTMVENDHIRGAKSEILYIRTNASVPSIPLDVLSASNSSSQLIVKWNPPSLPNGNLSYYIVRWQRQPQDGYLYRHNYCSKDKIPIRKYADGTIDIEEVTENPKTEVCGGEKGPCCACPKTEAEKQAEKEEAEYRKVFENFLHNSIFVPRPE
Insulin-like growth factor 1 receptor (Homo sapiens), sequence (P08069 741-1367 limits assumed): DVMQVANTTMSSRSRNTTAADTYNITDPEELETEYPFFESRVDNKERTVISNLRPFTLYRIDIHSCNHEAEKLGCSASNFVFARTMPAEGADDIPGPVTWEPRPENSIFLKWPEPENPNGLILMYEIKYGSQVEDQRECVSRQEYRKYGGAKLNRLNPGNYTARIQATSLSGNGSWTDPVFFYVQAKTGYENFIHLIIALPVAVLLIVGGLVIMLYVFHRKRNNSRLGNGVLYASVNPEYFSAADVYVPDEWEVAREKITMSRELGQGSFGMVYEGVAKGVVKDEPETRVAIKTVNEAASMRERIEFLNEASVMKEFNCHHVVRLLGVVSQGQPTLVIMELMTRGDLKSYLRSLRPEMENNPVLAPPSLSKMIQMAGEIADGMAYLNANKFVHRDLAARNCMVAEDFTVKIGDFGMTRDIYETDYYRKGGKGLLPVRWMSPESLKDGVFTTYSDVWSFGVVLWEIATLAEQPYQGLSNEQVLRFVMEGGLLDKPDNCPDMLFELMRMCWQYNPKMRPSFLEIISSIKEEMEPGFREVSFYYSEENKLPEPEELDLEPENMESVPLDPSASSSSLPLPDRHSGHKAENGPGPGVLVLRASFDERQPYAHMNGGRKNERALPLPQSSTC

[8] = target: T1, Serine/threonine-protein kinase Sgk1 (Homo sapiens) (UniProt O00141); assay: Inhibition of SGK1 at 1 uM
T1 sequence (whole entry): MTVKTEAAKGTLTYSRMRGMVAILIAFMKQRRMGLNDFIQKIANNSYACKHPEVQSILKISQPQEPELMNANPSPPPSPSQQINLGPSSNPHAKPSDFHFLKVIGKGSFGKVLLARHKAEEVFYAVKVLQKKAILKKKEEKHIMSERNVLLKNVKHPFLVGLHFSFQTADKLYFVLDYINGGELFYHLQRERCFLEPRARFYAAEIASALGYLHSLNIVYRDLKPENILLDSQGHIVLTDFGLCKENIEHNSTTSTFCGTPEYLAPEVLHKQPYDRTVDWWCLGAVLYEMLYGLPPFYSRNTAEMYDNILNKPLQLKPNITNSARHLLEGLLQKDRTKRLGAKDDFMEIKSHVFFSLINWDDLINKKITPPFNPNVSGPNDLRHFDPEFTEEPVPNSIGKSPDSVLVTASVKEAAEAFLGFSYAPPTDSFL

[9] = Inhibition of PDGFR at 1 uM
[10] = target: T2, NUAK family SNF1-like kinase 1 (Homo sapiens) (UniProt O60285); assay: Inhibition of ARK5 at 1 uM
T2 sequence (whole entry): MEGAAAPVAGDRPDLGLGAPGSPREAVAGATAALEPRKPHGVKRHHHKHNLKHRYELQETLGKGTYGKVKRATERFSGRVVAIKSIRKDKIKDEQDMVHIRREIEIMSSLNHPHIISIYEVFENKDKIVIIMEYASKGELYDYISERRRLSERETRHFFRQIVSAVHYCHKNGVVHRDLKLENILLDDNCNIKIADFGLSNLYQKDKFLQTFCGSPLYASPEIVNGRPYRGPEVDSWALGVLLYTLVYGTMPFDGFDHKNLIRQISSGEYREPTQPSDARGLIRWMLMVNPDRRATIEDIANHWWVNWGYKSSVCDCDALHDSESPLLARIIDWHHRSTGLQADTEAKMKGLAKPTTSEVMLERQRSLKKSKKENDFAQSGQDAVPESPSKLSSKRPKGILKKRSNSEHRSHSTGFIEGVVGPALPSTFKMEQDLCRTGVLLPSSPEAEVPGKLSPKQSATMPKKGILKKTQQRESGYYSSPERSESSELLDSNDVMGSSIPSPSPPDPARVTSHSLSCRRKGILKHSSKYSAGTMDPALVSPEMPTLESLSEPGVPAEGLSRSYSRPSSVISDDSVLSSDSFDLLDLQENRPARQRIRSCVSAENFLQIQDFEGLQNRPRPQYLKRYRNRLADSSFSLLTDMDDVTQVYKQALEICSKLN

[11] = target: Dual specificity tyrosine-phosphorylation-regulated kinase 1A (Homo sapiens) (UniProt Q13627); assay: Inhibition of DYRK1A at 1 uM
[12] = tested on: Serine/threonine-protein kinase B-raf (Homo sapiens), P15056 [V600E]; assay: Inhibition of BRAF V600E mutant at 5 uM
Serine/threonine-protein kinase B-raf (Homo sapiens), P15056 [V600E], sequence (P15056 whole entry V600E): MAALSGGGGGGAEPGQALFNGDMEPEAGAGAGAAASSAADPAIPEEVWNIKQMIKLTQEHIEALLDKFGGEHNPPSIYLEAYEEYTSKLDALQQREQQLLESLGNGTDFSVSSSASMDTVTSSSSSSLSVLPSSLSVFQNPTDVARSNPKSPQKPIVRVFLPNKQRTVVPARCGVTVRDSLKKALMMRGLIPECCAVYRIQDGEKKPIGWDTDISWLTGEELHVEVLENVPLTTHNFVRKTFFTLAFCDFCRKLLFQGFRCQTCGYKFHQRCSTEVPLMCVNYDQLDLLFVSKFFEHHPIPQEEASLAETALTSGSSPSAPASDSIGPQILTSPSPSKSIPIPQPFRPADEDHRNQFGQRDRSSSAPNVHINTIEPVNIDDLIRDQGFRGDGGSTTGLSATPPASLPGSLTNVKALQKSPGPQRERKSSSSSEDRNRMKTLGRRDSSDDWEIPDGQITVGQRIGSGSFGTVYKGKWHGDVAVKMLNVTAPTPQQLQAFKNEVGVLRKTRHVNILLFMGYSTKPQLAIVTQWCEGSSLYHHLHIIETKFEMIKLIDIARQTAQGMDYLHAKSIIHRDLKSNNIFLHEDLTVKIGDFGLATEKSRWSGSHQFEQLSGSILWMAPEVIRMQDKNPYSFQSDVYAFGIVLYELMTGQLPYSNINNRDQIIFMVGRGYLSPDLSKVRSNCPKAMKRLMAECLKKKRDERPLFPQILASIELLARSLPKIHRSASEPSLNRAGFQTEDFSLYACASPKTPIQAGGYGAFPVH

[13] = target: Receptor-type tyrosine-protein kinase FLT3 (Homo sapiens) (UniProt P36888); assay: Inhibition of FLT3 at 5 uM
[14] = target: Casein kinase I isoform alpha (Homo sapiens) (UniProt P48729); assay: Inhibition of CK1alpha1 at 5 uM
Casein kinase I isoform alpha (Homo sapiens), sequence (P48729 2-337 limits assumed): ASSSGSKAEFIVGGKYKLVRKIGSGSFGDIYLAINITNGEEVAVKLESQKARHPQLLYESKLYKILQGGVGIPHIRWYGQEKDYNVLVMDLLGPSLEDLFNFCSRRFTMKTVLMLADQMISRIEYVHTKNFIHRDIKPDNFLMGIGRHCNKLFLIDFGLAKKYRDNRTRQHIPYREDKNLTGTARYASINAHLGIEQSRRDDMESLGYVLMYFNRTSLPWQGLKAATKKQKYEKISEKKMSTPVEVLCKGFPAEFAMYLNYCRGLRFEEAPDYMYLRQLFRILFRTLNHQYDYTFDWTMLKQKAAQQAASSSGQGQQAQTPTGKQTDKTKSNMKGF

[15] = target: T3, Inhibitor of nuclear factor kappa-B kinase subunit beta (Homo sapiens) (UniProt O14920); assay: Inhibition of IKKbeta at 1 uM
T3 sequence (whole entry): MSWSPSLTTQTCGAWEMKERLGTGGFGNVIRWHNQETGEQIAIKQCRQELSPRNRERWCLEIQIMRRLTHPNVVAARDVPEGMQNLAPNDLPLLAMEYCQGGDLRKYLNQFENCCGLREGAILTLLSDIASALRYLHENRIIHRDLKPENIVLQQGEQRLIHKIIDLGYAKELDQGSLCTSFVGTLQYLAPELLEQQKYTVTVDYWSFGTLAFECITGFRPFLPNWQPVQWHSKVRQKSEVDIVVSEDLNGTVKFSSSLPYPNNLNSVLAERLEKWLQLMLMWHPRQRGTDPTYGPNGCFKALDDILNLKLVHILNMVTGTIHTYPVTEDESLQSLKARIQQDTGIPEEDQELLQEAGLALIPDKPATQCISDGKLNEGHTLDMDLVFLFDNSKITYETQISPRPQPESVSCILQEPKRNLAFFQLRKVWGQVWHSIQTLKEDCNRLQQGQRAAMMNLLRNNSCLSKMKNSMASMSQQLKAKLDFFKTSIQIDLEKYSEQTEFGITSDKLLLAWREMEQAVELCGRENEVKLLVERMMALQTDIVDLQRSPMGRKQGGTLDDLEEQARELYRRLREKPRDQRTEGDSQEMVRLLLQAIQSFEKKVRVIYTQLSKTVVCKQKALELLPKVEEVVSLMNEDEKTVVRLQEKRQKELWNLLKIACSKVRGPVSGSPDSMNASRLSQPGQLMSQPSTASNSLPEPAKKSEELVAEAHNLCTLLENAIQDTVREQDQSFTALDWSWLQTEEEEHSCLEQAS

[16] = target: RAC-alpha serine/threonine-protein kinase (Homo sapiens) (UniProt P31749); assay: Inhibition of AKT1 at 1 uM
RAC-alpha serine/threonine-protein kinase (Homo sapiens), sequence (P31749 whole entry): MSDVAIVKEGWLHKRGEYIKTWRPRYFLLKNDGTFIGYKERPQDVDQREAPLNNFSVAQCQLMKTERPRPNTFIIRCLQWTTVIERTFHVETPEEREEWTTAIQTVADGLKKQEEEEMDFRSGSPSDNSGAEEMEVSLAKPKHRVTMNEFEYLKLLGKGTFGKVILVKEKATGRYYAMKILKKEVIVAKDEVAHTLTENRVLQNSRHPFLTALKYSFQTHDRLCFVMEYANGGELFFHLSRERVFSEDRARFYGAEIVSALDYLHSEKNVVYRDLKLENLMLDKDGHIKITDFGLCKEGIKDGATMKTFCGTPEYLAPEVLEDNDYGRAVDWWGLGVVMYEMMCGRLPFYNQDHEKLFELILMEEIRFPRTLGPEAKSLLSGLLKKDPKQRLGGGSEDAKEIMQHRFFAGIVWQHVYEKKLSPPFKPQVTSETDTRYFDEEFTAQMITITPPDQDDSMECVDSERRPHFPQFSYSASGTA

[17] = target: Dual specificity mitogen-activated protein kinase kinase 1 (Homo sapiens) (UniProt Q02750); assay: Inhibition of MEK1 at 1 uM
Dual specificity mitogen-activated protein kinase kinase 1 (Homo sapiens), sequence (Q02750 whole entry): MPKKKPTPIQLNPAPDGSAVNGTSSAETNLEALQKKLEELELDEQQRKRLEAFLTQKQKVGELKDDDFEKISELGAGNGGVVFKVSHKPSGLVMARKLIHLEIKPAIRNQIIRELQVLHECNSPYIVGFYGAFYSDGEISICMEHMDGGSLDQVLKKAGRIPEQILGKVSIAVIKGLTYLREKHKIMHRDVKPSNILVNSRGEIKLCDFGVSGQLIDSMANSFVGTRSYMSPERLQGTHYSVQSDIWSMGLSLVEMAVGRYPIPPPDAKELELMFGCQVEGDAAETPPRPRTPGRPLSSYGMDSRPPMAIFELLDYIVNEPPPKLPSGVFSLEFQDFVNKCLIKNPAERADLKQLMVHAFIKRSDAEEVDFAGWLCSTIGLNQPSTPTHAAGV

[18] = target: Focal adhesion kinase 1 (Homo sapiens) (UniProt Q05397); assay: Inhibition of FAK at 1 uM
[19] = Stability in mouse liver microsomes at 1 uM incubated for 15 mins; type: ADME, Microsome; details: read-out: Stability
CYP2C9 = CYP2C9 (Homo sapiens, UniProt P11712); assay: Inhibition of CYP2C9 at 10 uM; type: ADME
[20] = target: PI3-kinase p110-alpha/p85-alpha (Homo sapiens, UniProt P42336); assay: Inhibition of human PI3Kalpha (p110alpha/p85alpha) by ADP accumulation based HTRF assay; type: protein-complex assay; details: for Ki: read-out: Ki(app)
[21] = target: Phosphatidylinositol 4,5-bisphosphate 3-kinase catalytic subunit alpha isoform (Homo sapiens, UniProt P42336); assay: Inhibition of PI3Kalpha in human U2OS cells assessed as inhibition of AKT Ser 473 phosphorylation by Western blot; type: cell-based

Tyrosine-protein kinase JAK2 (Homo sapiens), sequence (O60674 whole entry): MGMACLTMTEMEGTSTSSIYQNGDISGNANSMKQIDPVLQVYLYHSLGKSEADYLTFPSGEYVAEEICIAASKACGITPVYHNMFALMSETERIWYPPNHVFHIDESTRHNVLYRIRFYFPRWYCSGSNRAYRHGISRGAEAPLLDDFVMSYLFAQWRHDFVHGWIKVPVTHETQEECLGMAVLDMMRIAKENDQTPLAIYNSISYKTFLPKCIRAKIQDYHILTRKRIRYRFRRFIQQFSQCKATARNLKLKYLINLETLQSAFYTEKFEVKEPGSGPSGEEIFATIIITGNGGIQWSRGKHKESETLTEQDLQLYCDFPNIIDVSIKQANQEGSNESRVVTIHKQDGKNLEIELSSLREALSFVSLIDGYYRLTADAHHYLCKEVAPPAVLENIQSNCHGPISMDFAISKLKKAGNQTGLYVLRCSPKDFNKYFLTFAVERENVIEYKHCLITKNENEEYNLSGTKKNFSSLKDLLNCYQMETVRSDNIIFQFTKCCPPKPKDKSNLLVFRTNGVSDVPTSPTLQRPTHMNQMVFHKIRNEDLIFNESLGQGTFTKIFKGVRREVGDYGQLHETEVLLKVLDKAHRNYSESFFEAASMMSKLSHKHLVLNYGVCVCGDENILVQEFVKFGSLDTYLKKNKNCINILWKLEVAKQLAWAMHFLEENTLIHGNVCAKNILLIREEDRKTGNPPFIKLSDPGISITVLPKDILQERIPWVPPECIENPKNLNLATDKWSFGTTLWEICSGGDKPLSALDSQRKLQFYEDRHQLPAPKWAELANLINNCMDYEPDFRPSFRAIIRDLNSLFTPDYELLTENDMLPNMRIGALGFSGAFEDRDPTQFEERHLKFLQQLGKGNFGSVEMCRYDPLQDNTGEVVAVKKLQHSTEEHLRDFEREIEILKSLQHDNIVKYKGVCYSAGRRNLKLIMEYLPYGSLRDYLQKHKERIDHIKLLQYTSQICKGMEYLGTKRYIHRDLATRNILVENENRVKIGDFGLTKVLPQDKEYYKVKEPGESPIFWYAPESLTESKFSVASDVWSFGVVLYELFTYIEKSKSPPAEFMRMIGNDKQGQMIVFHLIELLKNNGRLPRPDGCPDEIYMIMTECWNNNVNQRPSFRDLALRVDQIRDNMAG

Row | inhibition [1] [%] | inhibition [2] [%] | inhibition [3] [%] | inhibition [4] [%] | inhibition [5] [%] | inhibition [6] [%] | inhibition [7] [%] | inhibition [8] [%] | inhibition [9] [%] | inhibition [10] [%] | inhibition [11] [%] | inhibition [12] [%] | inhibition [13] [%] | inhibition [14] [%] | inhibition [15] [%] | inhibition [16] [%] | inhibition [17] [%] | inhibition [18] [%] | remaining at 0.25 h, 1 µM [19] [%] | inhibition at 10 µM (CYP2C9) [%] | Structure (SMILES) | other results
1 | < 30 | < 30 | < 30 | < 30 | < 30 | < 30 | < 30 | < 30 | < 30 | < 30 | < 30 | < 30 | < 30 | < 30 | < 30 | < 30 | < 30 | < 30 | – | – | Cc1nc(N)ncc1-c1cn2cc(CN3CCN(S(C)(=O)=O)CC3)nc2c(N2CCOCC2)n1 | –
2 | < 30 | < 30 | < 30 | < 30 | < 30 | < 30 | < 30 | < 30 | < 30 | < 30 | < 30 | < 30 | < 30 | < 30 | < 30 | < 30 | < 30 | < 30 | 88 | < 30 | CS(=O)(=O)N1CCN(Cc2cn3cc(-c4cnc(N)nc4)nc(N4CCOCC4)c3n2)CC1 | –
3 | < 30 | < 30 | < 30 | < 30 | < 30 | < 30 | < 30 | < 30 | < 30 | < 30 | < 30 | < 30 | < 30 | < 30 | < 30 | < 30 | < 30 | < 30 | 43 | < 30 | CS(=O)(=O)N1CCN(Cc2nc3c(N4CCOCC4)nc(-c4cnc(N)nc4)cn3c2Br)CC1 | IC50 [20]: 0.7 nM; IC50 [21]: 8.1 nM
4 | < 30 | < 30 | < 30 | < 30 | < 30 | < 30 | < 30 | < 30 | < 30 | < 30 | < 30 | < 30 | < 30 | < 30 | < 30 | < 30 | < 30 | < 30 | 80 | < 30 | Cc1c(CN2CCN(S(C)(=O)=O)CC2)nc2c(N3CCOCC3)nc(-c3cnc(N)nc3)cn12 | IC50 [20]: 10 nM; Ki [20]: 10.1 nM; IC50 [21]: 15.4 nM
5 | < 30 | < 30 | < 30 | < 30 | < 30 | < 30 | < 30 | < 30 | < 30 | < 30 | < 30 | < 30 | < 30 | < 30 | < 30 | < 30 | < 30 | < 30 | 91 | < 30 | CS(=O)(=O)N1CCN(Cc2cn3c(Cl)c(-c4cnc(N)nc4)nc(N4CCOCC4)c3n2)CC1 | Ki [20]: 2.4 nM; IC50 [21]: 5.2 nM
